{
  "source": "patent US20230193181A1",
  "about": "“3D Tissue Printing” (Oxford University Innovation Limited, priority 2020, published 2023)",
  "key": {"[1]": {"settings": "reported in clinic; cited from earlier work"}, "[2]": {"tested_on": "printed neural tissue arrays (astrocytes and RFP-NPCs in Matrigel)", "experiment": "Neurotoxicity test using printed neural tissue arrays", "protocol": "FIG. 20a, The experimental process of drug testing using printed neural tissue arrays. From left to right: 2D cultured astrocytes and RFP-NPCs were harvested and added to Matrigel for the preparation of bio-ink with a cell density ratio of 3:1 (astrocytes vs RFP-NPCs) and total cell density of 4×10^7 mL^−1. The prepared bio-ink were printed into droplet arrays with individual droplet size around 100 μm. On the next day, cancer chemotherapy drugs were added to the culture medium. The neurotoxicity of the drugs were assessed after a further 24 hrs. FIG. 20b, Fluorescent images of neural tissues treated with DMSO (control) and cancer chemotherapy drugs with different reported neurotoxicity risks: 5-Fluorouracil (minor), Carboplatin (moderate), Taxol (high). […] FIG. 20c, Comparison of the neurotoxicity of different chemotherapy drugs.\nNeurotoxicity of cancer chemotherapy drugs occurs frequently in clinic and often limit the dose of chemotherapy. We tested three chemotherapy drugs that are reported in clinic with low, moderate and high risks of neurotoxicity, using printed droplet arrays containing neural tissues (astrocytes and NSCs in Matrigel)."}, "[3]": {"tested_on": "RFP-hNSCs", "experiment": "Toxicity test of DPhPC on hNSCs", "assay_type": "cell-based, human", "settings": "DPhPC at 100 μg/mL or 400 μg/mL in neural maintenance medium; three days of culture", "protocol": "RFP-hNSCs were cultured in neural maintenance medium containing no lipid (control) or DPhPC at either 100 μg/mL or 400 μg/mL. Arrows indicate the formation of neural rosette-like structures under all conditions after three days of culture."}, "[4]": {"tested_on": "printed neural tissues", "experiment": "Fluo-4 calcium imaging of printed neural tissues after KCl stimulation", "assay_type": "cell-based, human", "settings": "KCl 60 mM, 65 days ppd", "source_text": "FIG. 3d-f show spontaneous calcium oscillations (FIG. 3d), single-cell traces (FIG. 3e) and correlation coefficient analysis (FIG. 3f) of printed neural tissues at 44 days ppd. The data reveal increased neural communication after a longer period of differentiation. […] Intensities are false-coloured according to the ‘fire’ Look Up Table of Fiji. […] Images are false-coloured as in FIG. 3g. Scale bars are all 100 μm.\nCalcium imaging and correlation analysis. A Fluo-4 Direct™ calcium assay kit (F10471, Invitrogen) was used according to the manufacturer's instructions to measure calcium activities. Briefly, printed neural tissues were transferred to 48-well plates and incubated with NMM/Fluo-4 calcium imaging reagents (v:v, 1:1) for 1 h at 37° C. Both spontaneous and evoked calcium recordings were recorded at 37° C. by fluorescence confocal microscopy (Leica SP5) at 1 frame per 2 seconds for FIG. 3a, 1 frame per 15 seconds FIG. 3d and 1 frame per 1 second for FIG. 3g. Pre-processing and analysis of time-lapse calcium recordings were performed in MATLAB. […] Individual neuronal somata were manually selected as ROIs, and the pixel mask in the local area was refined using ICA-based de-mixing of fluorescent transients. ΔF/F0 at time t was calculated with a moving baseline as: […]"}, "[5]": {"tested_on": "Astrocytes in droplet arrays", "experiment": "Fluo-4 calcium live imaging of astrocytes in droplet arrays after KCl stimulation", "assay_type": "cell-based, human", "settings": "KCl 60 mM", "protocol": "FIG. 19a, human primary cortical astrocyte printed in an array. Astrocytes were printed at a cell density of 4×10^7 mL^−1 in Matrigel. Left: Calcein AM (CAM) staining of printed astrocytes at 2 days post printing. The dashed box indicates the area of the higher magnification image on the right (top two images in the middle). Top right row: higher magnification images of astrocyte printed in Matrigel (CAM staining image and the corresponding brightfield image) and image of astrocytes (brightfield with CAM staining) printed in agarose as the matrix. Bottom right row: immunostaining images of printed astrocytes with astrocyte markers vimentin (yellow) and GFAP (magenta). FIG. 19b, Spontaneous calcium fluctuations of astrocytes in printed droplet arrays. Left: Individual time-point frames of Fluo-4 calcium live imaging. Right: single-cell traces of the cells indicated by the colour-coded circles in the images (left panel). […] Proportions of astrocytes with spontaneous calcium fluctuations were measured at four conditions: 2D monolayer cell culture, and printed astrocyte, astrocyte-NPC, and astrocyte-MDA (a metastatic breast cancer cell line) droplet arrays. n>20 for all four conditions. *: P<0.05, **: P<0.01, ***: P<0.001 and ****: P<0.0001. […]"}, "[6]": {"tested_on": "iPSCs derived NPCs", "experiment": "Oil toxicity test using iPSCs derived NPCs", "assay_type": "cell-based", "settings": "oil on top of medium of 2D cultured NPCs, 5 days; live (CAM)/dead (PI) staining on day 5", "protocol": "2D cultured NPCs were added with oil on top of medium and cultured for 5 days. Life (CAM, in green) and Dead (PI, in read) staining were conducted on day 5.\nBioreactors have been used in macro-scale to support biological active environment. However, nanoliter-sized bioreactors would offer the potential to study biological events with much small number of cells, and the potential application in high throughput assays. We firstly optimised the oil surrounding the nano-bioreactors, which plays a large role in the viability of the encapsulated neural tissues. […] The optimised conditions allow the growth of individual low-nanoliter sized neural tissue inside each nano-bioreactor, without interaction with cells in other nano-bioreactors. With differentiation medium, neural process outgrowth and neural migration were observed and assessed in nano-bioreactors. This technique have the potential for a low-cost HTS, as minimal cells and reagents are required. It also offers the potential application to study biological events where a small organised cluster of cells were involved, such as early stage embryogenesis and tumorigenesis."}},
  "note": "Entries after “also recorded” stand apart in the source; their conditions may differ.",
  "data": [
    {"smiles": "O=c1[nH]cc(F)c(=O)[nH]1", "note": "[5-Fluorouracil]", "values": [
      {"measurement": "reported neurotoxicity risk", "setting": "[1]", "value": "minor"}
    ]},
    {"smiles": "N.N.O=C([O-])C1(C(=O)[O-])CCC1.[Pt+2]", "note": "[Carboplatin]", "values": [
      {"measurement": "neurotoxicity against neural cells in printed neural tissue arrays", "setting": "[2]; drugs added to culture medium the day after printing, assessed after a further 24 hrs, astrocytes:RFP-NPCs 3:1, n>25, P<0.05", "value": "higher toxicity against neural cells compared to 5-Fluorouracil"},
      {"measurement": "reported neurotoxicity risk", "setting": "[1]", "value": "moderate"}
    ]},
    {"smiles": "CC(C)CCCC(C)CCCC(C)CCCC(C)CC(=O)OC[C@H](COP(=O)([O-])OCC[N+](C)(C)C)OC(=O)CC(C)CCCC(C)CCCC(C)CCCC(C)C", "note": "(stereo partly drawn) [DPhPC, 1,2-diphytanoyl-sn-glycero-3-phosphocholine]", "values": [
      {"measurement": "toxicity of DPhPC on hNSCs (neural rosette-like structure formation vs no-lipid control)", "setting": "[3]", "value": "No obvious differences"}
    ]},
    {"smiles": "[Cl-].[K+]", "note": "[KCl]", "values": [
      {"measurement": "calcium response of printed neural tissues to KCl", "setting": "[4]", "value": "induced a rapid calcium transient in a cell; also recorded: evoked rapid Ca^2+ transients"},
      {"measurement": "calcium response of astrocytes in droplet arrays to KCl stimulation", "setting": "[5]", "value": "responsive"}
    ]},
    {"smiles": "CC(=O)O[C@H]1C(=O)[C@@]2(C)[C@H]([C@H](OC(=O)c3ccccc3)[C@]3(O)C[C@H](OC(=O)[C@H](O)[C@@H](NC(=O)c4ccccc4)c4ccccc4)C(C)=C1C3(C)C)[C@]1(OC(C)=O)CO[C@@H]1C[C@@H]2O", "note": "[Taxol]", "values": [
      {"measurement": "neurotoxicity against neural cells in printed neural tissue arrays", "setting": "[2]; human, 24 h", "value": "higher toxicity against neural cells compared to 5-Fluorouracil"},
      {"measurement": "reported neurotoxicity risk", "setting": "[1]", "value": "high"}
    ]},
    {"smiles": "CCCCCCCC/C=C\\CCCCCCCC(=O)OCC(COC(=O)CCCCCCC/C=C\\CCCCCCCC)OC(=O)CCCCCCC/C=C\\CCCCCCCC", "note": "[glyceryl trioleate]", "values": [
      {"measurement": "oil toxicity to NPCs", "setting": "[6]", "value": "not toxic"}
    ]}
  ]
}
